# According to PMC2936488 (ACS chemical neuroscience, 2010):
# Biological target: T1, M1 muscarinic acetylcholine receptor (M1 mAChR) (Homo sapiens, UniProt P11229)
# T1 sequence (P11229 1-460): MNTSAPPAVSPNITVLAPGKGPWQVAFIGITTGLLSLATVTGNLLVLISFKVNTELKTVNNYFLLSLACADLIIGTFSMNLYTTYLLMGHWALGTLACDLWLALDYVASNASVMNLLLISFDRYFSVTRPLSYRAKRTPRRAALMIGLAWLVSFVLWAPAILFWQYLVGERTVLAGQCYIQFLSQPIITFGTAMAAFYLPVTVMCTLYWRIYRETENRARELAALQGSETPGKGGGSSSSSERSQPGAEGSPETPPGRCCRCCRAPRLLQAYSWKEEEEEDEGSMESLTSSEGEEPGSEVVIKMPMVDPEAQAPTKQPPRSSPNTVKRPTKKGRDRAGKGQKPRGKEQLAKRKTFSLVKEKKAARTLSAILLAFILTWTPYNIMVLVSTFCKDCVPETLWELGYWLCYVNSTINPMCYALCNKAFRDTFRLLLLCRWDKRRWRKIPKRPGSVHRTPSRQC
# Assay: intracellular calcium mobilization in M1-CHO cells
# Type: cell-based
smiles,measurement,value
CCCCC1CCN(CCCN2C(=O)COc3cc(F)ccc32)CC1 [AC260584],EC50,146 nM
